Data published in patent US6416967B2, “Method of using multicellular particulates to analyze malignant or hyperproliferative tissue” (Precision Therapeutics, Inc., priority 1996, dated 2002).

Legend:
Assay type in all cases: cell-based
[1] = system: human ovarian tumor cells; assay: Combination chemotherapy microtiter assay, Taxol and carboplatin (Example 4); conditions: then 48 hours, four tumor specimens
Protocol: Twenty-four (24) hours post-plating, the chemotherapeutic agent Taxol was applied to the wells in the microtiter plates. […] Rows 5 and 9 served as a control. The Taxol exposure time was two hours. Twenty-four hours later, the cells in the wells were exposed to carboplatin for two hours. The tumor cells in the wells were then incubated for another 48 hours.
Cell number relative to control was determined.

[2] = system: human brain tumor and human ovarian tumor cells; assay: Combined modality drug/radiation microtiter assay (Example 7); conditions: Taxol 0.5-25.0 μM with 2 Gy, or Taxol 5 μM with 1 Gy-6 Gy; through 5 days post-treatment; four tumor specimens
Protocol: Twenty-four (24) hours post-plating, cells in the microtiter plate wells were exposed to the chemotherapeutic agent Taxol. One set of plates was designed to have escalating Taxol doses with (0.5-25.0 μM) with a fixed radiation dose (2 Gy). A second set of plates was designed to have a fixed Taxol dose (5 μM) with an escalating radiation dose (1 Gy-6 Gy). The cells in the plates were irradiated using a Siemans Stabilipan X-ray machine operating at 250 kVp, 15 mA with a dose rate of 75 rad/minute.
For each of the two treatment schema, cell number per well was monitored as a function of time through 5 days post-treatment. Cell number relative to controls was determined and survival curves were fit.

[3] = system: human breast tumor cells; assay: Hormonal therapy microtiter assay, inhibition of cell proliferation (Example 5)

N.N.O=C([O-])C1(C(=O)[O-])CCC1.[Pt+2] [carboplatin]
cell number relative to control, fixed Taxol/escalating carboplatin ([1]; Taxol 5 μM for two hours, carboplatin 50, 200, 1000 μM for two hours 24 h later): dose response relationship was observed

CC(=O)O[C@H]1C(=O)[C@@]2(C)[C@H]([C@H](OC(=O)c3ccccc3)[C@]3(O)C[C@H](OC(=O)[C@H](O)[C@@H](NC(=O)c4ccccc4)c4ccccc4)C(C)=C1C3(C)C)[C@]1(OC(C)=O)CO[C@@H]1C[C@@H]2O [Taxol]
cell killing by drug combined with radiation (cell number relative to controls, survival curves) [2]: Both additive and synergistic cell killing | cell number relative to control, escalating Taxol/fixed carboplatin ([1]; Taxol 1.0, 5.0, 25 μM for two hours, carboplatin 200 μM for two hours 24 h later): dose response relationship was observed

CC/C(=C(\c1ccccc1)c1ccc(OCCN(C)C)cc1)c1ccccc1 [Tamoxifen]
inhibition of cell proliferation (cell number relative to control) ([3]; 10 nM to 20 μM, six doses, 24 hours exposure, then 72 hours, four breast tumor specimens): two of the four breast specimens tested showed an inhibition of cell proliferation | concentration range in which the responses occurred ([3]; tested range 10 nM to 20 μM): mid to high
